Reference: BindingDB's records for patent US20230286970 (Italfarmaco, 2023)

What was measured:
Assay in all cases: Enzymatic Activity Assay
Histone deacetylase 11 = biological target: T1, Histone deacetylase 11 (Homo sapiens, UniProt Q96DB2)
T1 sequence (Q96DB2 whole entry): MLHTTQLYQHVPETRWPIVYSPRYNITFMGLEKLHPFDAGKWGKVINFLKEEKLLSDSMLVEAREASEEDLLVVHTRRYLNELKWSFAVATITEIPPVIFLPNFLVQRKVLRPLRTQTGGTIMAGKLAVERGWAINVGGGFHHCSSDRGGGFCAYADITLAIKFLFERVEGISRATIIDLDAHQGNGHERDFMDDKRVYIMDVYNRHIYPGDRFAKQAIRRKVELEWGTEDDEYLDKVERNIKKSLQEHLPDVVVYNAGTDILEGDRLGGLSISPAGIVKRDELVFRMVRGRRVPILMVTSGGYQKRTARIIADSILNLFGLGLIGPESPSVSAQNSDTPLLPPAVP
Description: (§1) After a period of preincubation (incubation times and temperatures vary for different isoforms and are shown in table 1) 25 μL of solution containing the substrate were added. […] Enzymatic activity on recombinant human HDAC6 and HDAC1 was evaluated (Table 2) for each synthesized compound.

Histone deacetylase 2 = Histone deacetylase 2 (Homo sapiens, UniProt Q92769)
Chain of Histone deacetylase 2 (Q92769 whole entry): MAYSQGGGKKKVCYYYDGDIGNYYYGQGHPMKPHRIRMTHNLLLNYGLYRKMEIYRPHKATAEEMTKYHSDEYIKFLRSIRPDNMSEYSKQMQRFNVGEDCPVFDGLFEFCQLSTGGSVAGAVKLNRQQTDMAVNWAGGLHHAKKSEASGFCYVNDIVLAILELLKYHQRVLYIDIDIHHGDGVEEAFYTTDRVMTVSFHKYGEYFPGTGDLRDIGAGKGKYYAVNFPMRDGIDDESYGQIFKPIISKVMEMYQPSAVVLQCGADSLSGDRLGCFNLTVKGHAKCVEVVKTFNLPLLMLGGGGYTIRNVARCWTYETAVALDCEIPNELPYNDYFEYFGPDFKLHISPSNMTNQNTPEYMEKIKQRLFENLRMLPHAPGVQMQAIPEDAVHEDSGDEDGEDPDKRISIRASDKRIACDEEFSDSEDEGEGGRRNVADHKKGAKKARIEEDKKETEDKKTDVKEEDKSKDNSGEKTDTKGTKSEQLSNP
Description: as §1

Histone deacetylase 5 = Histone deacetylase 5 (Homo sapiens, UniProt Q9UQL6)
Chain of Histone deacetylase 5 (Q9UQL6 whole entry): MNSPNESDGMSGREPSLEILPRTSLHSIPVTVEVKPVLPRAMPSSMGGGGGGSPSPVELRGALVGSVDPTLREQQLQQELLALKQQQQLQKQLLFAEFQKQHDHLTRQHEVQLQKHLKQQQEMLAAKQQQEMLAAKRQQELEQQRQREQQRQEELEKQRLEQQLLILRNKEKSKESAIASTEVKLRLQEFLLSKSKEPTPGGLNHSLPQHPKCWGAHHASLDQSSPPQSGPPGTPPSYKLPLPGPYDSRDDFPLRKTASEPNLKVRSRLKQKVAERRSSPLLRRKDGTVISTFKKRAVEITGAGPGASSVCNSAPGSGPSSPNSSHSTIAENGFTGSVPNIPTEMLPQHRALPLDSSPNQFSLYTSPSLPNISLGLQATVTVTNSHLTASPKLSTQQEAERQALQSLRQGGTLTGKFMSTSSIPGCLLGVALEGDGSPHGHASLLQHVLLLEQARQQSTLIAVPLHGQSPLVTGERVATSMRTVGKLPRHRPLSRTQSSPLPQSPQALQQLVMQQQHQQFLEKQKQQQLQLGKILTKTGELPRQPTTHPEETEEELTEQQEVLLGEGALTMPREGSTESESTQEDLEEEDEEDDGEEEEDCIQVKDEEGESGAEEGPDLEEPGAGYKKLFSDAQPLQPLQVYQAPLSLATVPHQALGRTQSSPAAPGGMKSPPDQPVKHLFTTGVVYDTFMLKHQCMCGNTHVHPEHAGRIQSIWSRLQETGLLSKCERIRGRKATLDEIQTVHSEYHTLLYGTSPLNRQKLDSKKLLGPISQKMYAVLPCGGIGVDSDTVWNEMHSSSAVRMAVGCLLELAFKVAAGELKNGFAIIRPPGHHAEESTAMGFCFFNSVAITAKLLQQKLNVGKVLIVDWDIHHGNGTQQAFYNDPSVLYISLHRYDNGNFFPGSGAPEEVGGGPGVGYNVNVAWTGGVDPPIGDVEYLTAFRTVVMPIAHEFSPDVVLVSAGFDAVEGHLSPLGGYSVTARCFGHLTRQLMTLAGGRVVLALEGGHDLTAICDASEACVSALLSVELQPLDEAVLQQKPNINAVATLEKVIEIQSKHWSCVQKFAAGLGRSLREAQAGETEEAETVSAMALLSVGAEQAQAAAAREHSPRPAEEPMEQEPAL
Description: as §1

Histone deacetylase 6 = biological target: T2, Histone deacetylase 6 (Homo sapiens, UniProt Q9UBN7)
T2 sequence (Q9UBN7 whole entry): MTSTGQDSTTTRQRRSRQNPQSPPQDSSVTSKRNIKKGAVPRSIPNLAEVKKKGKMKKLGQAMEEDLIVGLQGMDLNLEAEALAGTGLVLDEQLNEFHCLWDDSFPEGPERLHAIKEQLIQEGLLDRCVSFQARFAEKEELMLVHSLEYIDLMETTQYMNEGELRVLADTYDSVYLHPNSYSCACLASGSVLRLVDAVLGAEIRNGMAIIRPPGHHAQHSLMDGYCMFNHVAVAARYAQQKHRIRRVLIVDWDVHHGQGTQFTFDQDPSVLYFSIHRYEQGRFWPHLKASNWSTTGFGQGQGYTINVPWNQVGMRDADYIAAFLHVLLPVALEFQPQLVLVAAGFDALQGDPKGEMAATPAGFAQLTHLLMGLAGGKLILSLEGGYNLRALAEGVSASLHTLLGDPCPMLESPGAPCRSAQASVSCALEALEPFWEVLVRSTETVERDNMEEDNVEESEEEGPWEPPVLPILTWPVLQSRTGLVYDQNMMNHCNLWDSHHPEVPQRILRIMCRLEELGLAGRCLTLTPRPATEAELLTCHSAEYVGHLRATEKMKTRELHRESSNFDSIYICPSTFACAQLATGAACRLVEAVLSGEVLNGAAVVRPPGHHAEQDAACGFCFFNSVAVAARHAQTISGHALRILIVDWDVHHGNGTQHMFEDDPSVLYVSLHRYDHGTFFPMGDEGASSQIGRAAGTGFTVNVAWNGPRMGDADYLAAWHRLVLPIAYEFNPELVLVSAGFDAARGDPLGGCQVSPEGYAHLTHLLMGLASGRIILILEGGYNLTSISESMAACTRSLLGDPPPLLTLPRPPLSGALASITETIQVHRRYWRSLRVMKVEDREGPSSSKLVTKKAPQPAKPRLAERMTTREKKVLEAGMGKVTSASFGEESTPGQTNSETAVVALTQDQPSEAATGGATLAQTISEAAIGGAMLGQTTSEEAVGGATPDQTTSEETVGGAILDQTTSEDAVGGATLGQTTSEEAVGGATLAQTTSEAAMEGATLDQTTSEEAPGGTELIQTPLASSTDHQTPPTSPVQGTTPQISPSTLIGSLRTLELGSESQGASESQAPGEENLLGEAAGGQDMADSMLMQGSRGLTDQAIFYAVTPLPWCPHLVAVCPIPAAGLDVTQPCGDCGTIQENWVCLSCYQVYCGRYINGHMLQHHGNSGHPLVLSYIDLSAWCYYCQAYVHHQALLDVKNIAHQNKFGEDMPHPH
Description: as §1

Histone deacetylase 8 = biological target: T3, Histone deacetylase 8 (Homo sapiens, UniProt Q9BY41)
T3 sequence (Q9BY41 whole entry): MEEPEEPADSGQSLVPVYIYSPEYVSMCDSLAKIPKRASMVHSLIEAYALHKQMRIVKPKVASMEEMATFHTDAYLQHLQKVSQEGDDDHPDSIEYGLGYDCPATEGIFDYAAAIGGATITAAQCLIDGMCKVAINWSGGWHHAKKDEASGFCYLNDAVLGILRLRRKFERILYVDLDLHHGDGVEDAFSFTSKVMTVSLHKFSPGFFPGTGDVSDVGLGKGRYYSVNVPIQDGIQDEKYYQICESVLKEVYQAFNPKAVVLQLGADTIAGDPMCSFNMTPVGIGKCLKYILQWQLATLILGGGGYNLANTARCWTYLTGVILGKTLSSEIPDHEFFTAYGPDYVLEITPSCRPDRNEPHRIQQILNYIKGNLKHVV
Description: as §1

Histone deacetylase 9 = Histone deacetylase 9 (Homo sapiens, UniProt Q9UKV0)
Chain of Histone deacetylase 9 (Q9UKV0 whole entry): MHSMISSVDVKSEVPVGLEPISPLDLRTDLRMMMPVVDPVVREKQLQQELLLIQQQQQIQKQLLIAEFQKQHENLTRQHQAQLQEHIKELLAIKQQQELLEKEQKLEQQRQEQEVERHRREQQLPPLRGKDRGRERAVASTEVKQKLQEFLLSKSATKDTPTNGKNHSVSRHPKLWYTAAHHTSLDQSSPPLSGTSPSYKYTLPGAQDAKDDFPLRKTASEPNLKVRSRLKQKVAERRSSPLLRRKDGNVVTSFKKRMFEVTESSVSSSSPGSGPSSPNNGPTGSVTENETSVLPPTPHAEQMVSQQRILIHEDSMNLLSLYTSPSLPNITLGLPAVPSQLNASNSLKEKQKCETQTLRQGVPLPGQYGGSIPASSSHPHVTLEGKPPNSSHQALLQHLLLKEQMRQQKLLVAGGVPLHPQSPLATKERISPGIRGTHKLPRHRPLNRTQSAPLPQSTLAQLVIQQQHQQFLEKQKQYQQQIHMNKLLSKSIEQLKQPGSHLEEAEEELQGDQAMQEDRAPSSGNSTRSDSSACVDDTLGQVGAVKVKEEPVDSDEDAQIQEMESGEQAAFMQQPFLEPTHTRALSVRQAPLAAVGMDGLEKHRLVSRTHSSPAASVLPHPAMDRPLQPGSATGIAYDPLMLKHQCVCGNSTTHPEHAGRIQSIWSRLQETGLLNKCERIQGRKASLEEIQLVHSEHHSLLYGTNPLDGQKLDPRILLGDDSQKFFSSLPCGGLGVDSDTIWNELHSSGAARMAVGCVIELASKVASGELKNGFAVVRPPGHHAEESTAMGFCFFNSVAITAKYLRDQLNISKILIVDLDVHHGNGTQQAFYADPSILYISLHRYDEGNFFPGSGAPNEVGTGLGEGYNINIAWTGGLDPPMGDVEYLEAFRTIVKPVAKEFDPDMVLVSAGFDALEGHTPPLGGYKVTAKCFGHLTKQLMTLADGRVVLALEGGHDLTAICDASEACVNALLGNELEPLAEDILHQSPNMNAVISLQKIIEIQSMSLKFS
Description: as §1

[1] = biological target: T4, Polyamine deacetylase HDAC10 (Homo sapiens, UniProt Q969S8)
T4 sequence (Q969S8 whole entry): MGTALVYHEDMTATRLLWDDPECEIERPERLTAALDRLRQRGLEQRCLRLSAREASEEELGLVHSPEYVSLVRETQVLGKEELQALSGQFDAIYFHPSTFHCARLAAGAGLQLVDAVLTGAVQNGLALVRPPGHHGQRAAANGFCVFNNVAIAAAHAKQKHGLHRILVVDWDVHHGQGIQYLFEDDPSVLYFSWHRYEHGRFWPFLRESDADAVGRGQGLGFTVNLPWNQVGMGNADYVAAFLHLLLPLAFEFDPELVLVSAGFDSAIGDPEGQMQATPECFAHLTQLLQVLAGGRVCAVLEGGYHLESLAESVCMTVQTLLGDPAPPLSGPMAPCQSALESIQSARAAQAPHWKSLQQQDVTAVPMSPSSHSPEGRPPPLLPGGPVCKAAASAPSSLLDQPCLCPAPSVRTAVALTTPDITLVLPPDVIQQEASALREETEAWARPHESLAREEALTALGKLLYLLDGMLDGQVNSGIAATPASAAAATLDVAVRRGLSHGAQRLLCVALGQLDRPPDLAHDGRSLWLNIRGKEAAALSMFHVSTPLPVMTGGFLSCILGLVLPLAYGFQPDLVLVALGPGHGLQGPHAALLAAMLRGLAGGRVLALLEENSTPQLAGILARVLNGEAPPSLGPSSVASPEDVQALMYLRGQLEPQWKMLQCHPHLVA
Description: as §1

Row | IC50 (Histone deacetylase 11) [µM] | IC50 (Histone deacetylase 2) [µM] | IC50 (Histone deacetylase 5) [µM] | IC50 (Histone deacetylase 6) [µM] | IC50 (Histone deacetylase 8) [µM] | IC50 (Histone deacetylase 9) [µM] | IC50 [1] [µM] | SMILES
1 | > 30 | > 30 | > 30 | 0.025 | > 200 | > 30 | > 30 | Nc1nc2ccc(-c3cn(Cc4ccc(-c5nnc(C(F)F)o5)cc4)nn3)cc2s1 [US20230286970, Compound 14]
2 | > 30 | > 30 | > 30 | 0.026 | > 200 | > 30 | > 30 | Nc1ccc(-c2cn(Cc3ccc(-c4nnc(C(F)F)o4)c(F)c3)nn2)cn1 [US20230286970, Compound 15]
